This assay deals with T1, human Glycogen Synthase Kinase-3 beta (hGSK-3β) (Homo sapiens, UniProt P49841).
T1 construct: purchased Upstate cell signaling solutions
T1 sequence (P49841 whole entry): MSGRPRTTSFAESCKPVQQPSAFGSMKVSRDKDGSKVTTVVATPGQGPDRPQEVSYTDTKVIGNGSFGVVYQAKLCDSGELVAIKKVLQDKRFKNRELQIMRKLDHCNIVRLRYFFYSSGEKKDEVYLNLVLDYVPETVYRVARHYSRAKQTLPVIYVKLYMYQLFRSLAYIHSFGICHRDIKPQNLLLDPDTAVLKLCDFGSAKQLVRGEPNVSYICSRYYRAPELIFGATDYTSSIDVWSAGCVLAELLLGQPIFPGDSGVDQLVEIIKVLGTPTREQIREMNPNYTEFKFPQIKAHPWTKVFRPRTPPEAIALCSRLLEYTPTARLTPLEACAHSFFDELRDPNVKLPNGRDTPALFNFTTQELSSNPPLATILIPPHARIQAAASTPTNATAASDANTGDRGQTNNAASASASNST
The assay can be described thus: Biochemical hGSK-3beta assay (33P-ATP phosphorylation of biotinylated peptide substrate). The following applies: 10 μM ATP, 1 μM substrate, 30 minutes at room temperature; read-out: GSK-3β IC50. As for the experimental part: Methods—Biochemical hGSK-3Beta Assay
Compounds were tested for their ability to inhibit human Glycogen Synthase Kinase-3 beta (hGSK-3β) to phosphorylate biotin-[…](pS)EDEEE. Compounds were incubated with 0.5 μCi 33P-ATP, 10 μM ATP, 0.0125U hGSK-3β (Upstate cell signaling solutions) and 1 μM substrate (biotin-[…](pS)EDEEE) in 50 mM HEPES, 10 mM MgCl2, […], 1 mM DTT, 0.0075% Triton, 2% DMSO (total volume 50 μL) for 30 minutes at room temperature. The incubation was stopped by addition of an equal volume of 100 mM EDTA, 4M NaCl. 80 μL of this mixture was added to streptavidin-coated Flashplates (PerkinElmer). Following a wash step, 33P incorporation was quantified on a MicroBeta microplate liquid scintillation counter (PerkinElmer). IC50s were determined by fitting a sigmoidal dose-response curve to the counts obtained at the different concentrations in GraphPad Prism.
Consider `COc1ccc2c(NC(=O)Nc3cccc(N4C[C@@H]5C[C@H]4CO5)n3)ccnc2c1` [Example 10, 1-(6-((1S,4S)-2-Oxa-5-azabicyclo[2.2.1]heptan-5-yl)pyridin-2-yl)-3-(7-methoxyquinolin-4-yl)urea], for which the IC50 (in general, the concentration that inhibits the measured activity by half) was less than 100 nM.
For the compound `O=C(Nc1cnccn1)Nc1ccnc2cc(N3C[C@@H]4C[C@H]3CN4)ccc12` [Example 7, 1-(7-((1S,4S)-2,5-Diazabicyclo[2.2.1]heptan-2-yl)quinolin-4-yl)-3-(pyrazin-2-yl)urea], the IC50 fell in the range of 100 to 10000 nM.
Consider `CC(C)(C)OC(=O)N1C[C@@H]2C[C@H]1CN2c1ccc2nccc(NC(=O)Nc3cnccn3)c2c1` [Example 11, (1S,4S)-Tert-butyl 5-(4-(3-pyrazin-2-ylureido)quinolin-6-yl)-2,5-diazabicyclo[2.2.1]heptane-2-carboxylate], for which the IC50 lay within 100 to 10000 nM.
In the case of `CC(C)(C)OC(=O)N1C[C@@H]2CN(c3ccc4c(NC(=O)Nc5cnccn5)ccnc4c3)C[C@@H]2C1` [Example 1, (3aR,6aS)-Tert-butyl 5-(4-(3-pyrazin-2-ylureido)quinolin-7-yl)-hexahydropyrrolo[3,4-c]pyrrole-2(1H)-carboxylate] it was 100 to 10000 nM; in that of `O=C(Nc1cnccn1)Nc1ccnc2cc(N3CC4CCNC4C3)ccc12` (stereo not shown) [Example 12, 1-(7-(Hexahydropyrrolo[3,4-b]pyrrol-5(1H)-yl)quinolin-4-yl)-3-(pyrazin-2-yl)urea], 100 to 10000 nM; in that of `COc1ccc2c(NC(=O)Nc3cccc(N4CC5COCC5C4)n3)ccnc2c1` (stereo not shown) [Example 9, 1-(6-(Dihydro-1H-furo[3,4-c]pyrrol-5(3H,6H,6aH)-yl)pyridin-2-yl)-3-(7-methoxyquinolin-4-yl)urea], less than 100 nM.
For the compound `COc1ccc2c(NC(=O)Nc3cncc(N4C[C@H]5CN(C(=O)OC(C)(C)C)C[C@H]5C4)n3)ccnc2c1` [Example 3, (3aR,6aS)-tert-butyl 5-(6-(3-(7-methoxyquinolin-4-yl)ureido)pyrazin-2-yl)-hexahydropyrrolo[3,4-c]pyrrole-2(1H)-carboxylate], the IC50 was 100 to 10000 nM.

The values above are taken from patent US8455648B2, “1-(7-(hexahydropyrrolo [3,4-c] pyrrol-2 (1H)-yl) quinolin-4-yl) -3- (pyrazin-2-yl) urea derivatives and related compounds as glycogen synthase kinase 3 (GSK-3)” (Abbott GmbH & Co. KG, priority 2008, dated 2013).
